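Cells were grown in 96-well plates and exposed to each compound for 48 hours at five concentrations; endpoints were interpolated linearly between bracketing concentrations, or set to the highest concentration if not reached. Here, GI50 denotes the concentration required for 50% inhibition of growth. At the TGI there is no net growth.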
How the values were obtained:
Assay in all cases: DTP human tumour cell line panel, 48 h
UO-31 renal = system: UO-31 renal
K-562 leukemia = system: K-562 leukemia
OVCAR-3 ovarian = system: OVCAR-3 ovarian
OVCAR-5 ovarian = system: OVCAR-5 ovarian
HCT-15 colon = system: HCT-15 colon
SF-539 CNS = system: SF-539 CNS
EKVX NSCLC = system: EKVX NSCLC
CAKI-1 renal = system: CAKI-1 renal
HS 578T breast = system: HS 578T breast
RPMI-8226 leukemia = system: RPMI-8226 leukemia
NCI/ADR-RES ovarian = system: NCI/ADR-RES ovarian
M14 melanoma = system: M14 melanoma
SF-295 CNS = system: SF-295 CNS
MDA-MB-435 = system: MDA-MB-435
MCF7 breast = system: MCF7 breast
U251 CNS = system: U251 CNS
RXF 393 renal = system: RXF 393 renal
OVCAR-4 ovarian = system: OVCAR-4 ovarian
SK-MEL-28 melanoma = system: SK-MEL-28 melanoma
MALME-3M melanoma = system: MALME-3M melanoma
A549 NSCLC = system: A549 NSCLC
UACC-257 melanoma = system: UACC-257 melanoma
786-0 renal = system: 786-0 renal
T-47D breast = system: T-47D breast
HT29 colon = system: HT29 colon
SNB-75 CNS = system: SNB-75 CNS
UACC-62 melanoma = system: UACC-62 melanoma
MOLT-4 leukemia = system: MOLT-4 leukemia
NCI-H460 lung = system: NCI-H460 lung
HOP-92 NSCLC = system: HOP-92 NSCLC
NCI-H226 lung = system: NCI-H226 lung
SR leukemia = system: SR leukemia
SK-MEL-2 melanoma = system: SK-MEL-2 melanoma
HL-60(TB) leukemia = system: HL-60(TB) leukemia
HCC-2998 colon = system: HCC-2998 colon
ACHN renal = system: ACHN renal
NCI-H23 lung = system: NCI-H23 lung
SK-OV-3 ovarian = system: SK-OV-3 ovarian
SW-620 colon = system: SW-620 colon
BT-549 breast = system: BT-549 breast
CCRF-CEM leukemia = system: CCRF-CEM leukemia
SF-268 CNS = system: SF-268 CNS
TK-10 renal = system: TK-10 renal
OVCAR-8 ovarian = system: OVCAR-8 ovarian
LOX IMVI melanoma = system: LOX IMVI melanoma
IGROV1 ovarian = system: IGROV1 ovarian
PC-3 prostate = system: PC-3 prostate
DU-145 prostate = system: DU-145 prostate
KM12 colon = system: KM12 colon
HCT-116 colon = system: HCT-116 colon
HOP-62 NSCLC = system: HOP-62 NSCLC
MDA-MB-231 breast = system: MDA-MB-231 breast
SNB-19 CNS = system: SNB-19 CNS
SK-MEL-5 melanoma = system: SK-MEL-5 melanoma
COLO 205 colon = system: COLO 205 colon
NCI-H522 lung = system: NCI-H522 lung
A498 renal = system: A498 renal
SN12C renal = system: SN12C renal

## c1cncc(C2(c3cc4ccccc4[nH]3)COCO2)c1 (centres undefined)
UO-31 renal
  TGI: > 100 µM
K-562 leukemia
  TGI: > 100 µM
OVCAR-3 ovarian
  TGI: > 100 µM
OVCAR-5 ovarian
  TGI: > 100 µM
HCT-15 colon
  TGI: > 100 µM
SF-539 CNS
  TGI: > 100 µM
EKVX NSCLC
  TGI: > 100 µM
CAKI-1 renal
  TGI: > 100 µM
HS 578T breast
  TGI: > 100 µM
RPMI-8226 leukemia
  TGI: > 100 µM
NCI/ADR-RES ovarian
  TGI: > 100 µM
M14 melanoma
  TGI: > 100 µM
SF-295 CNS
  TGI: > 100 µM
MDA-MB-435
  TGI: > 100 µM
MCF7 breast
  TGI: > 100 µM
U251 CNS
  TGI: > 100 µM
RXF 393 renal
  TGI: > 100 µM
OVCAR-4 ovarian
  TGI: > 100 µM
SK-MEL-28 melanoma
  TGI: > 100 µM
MALME-3M melanoma
  TGI: > 100 µM
A549 NSCLC
  TGI: > 100 µM
UACC-257 melanoma
  TGI: > 100 µM
786-0 renal
  TGI: > 100 µM
T-47D breast
  TGI: > 100 µM
HT29 colon
  TGI: > 100 µM
SNB-75 CNS
  TGI: > 100 µM
UACC-62 melanoma
  TGI: > 100 µM
MOLT-4 leukemia
  TGI: > 100 µM
NCI-H460 lung
  TGI: > 100 µM
HOP-92 NSCLC
  TGI: > 100 µM
NCI-H226 lung
  TGI: > 100 µM
SR leukemia
  TGI: > 100 µM
SK-MEL-2 melanoma
  TGI: > 100 µM
HL-60(TB) leukemia
  TGI: > 100 µM
HCC-2998 colon
  TGI: > 100 µM
ACHN renal
  TGI: > 100 µM
NCI-H23 lung
  TGI: > 100 µM
SK-OV-3 ovarian
  TGI: > 100 µM
SW-620 colon
  TGI: > 100 µM
BT-549 breast
  TGI: > 100 µM
CCRF-CEM leukemia
  TGI: 56.6 µM
SF-268 CNS
  TGI: > 100 µM
TK-10 renal
  TGI: > 100 µM
OVCAR-8 ovarian
  TGI: > 100 µM
LOX IMVI melanoma
  TGI: > 100 µM
IGROV1 ovarian
  TGI: > 100 µM
PC-3 prostate
  TGI: > 100 µM
DU-145 prostate
  TGI: > 100 µM
KM12 colon
  TGI: > 100 µM
HCT-116 colon
  TGI: > 100 µM
HOP-62 NSCLC
  TGI: > 100 µM
MDA-MB-231 breast
  TGI: > 100 µM
SNB-19 CNS
  TGI: > 100 µM
SK-MEL-5 melanoma
  TGI: > 100 µM
COLO 205 colon
  TGI: > 100 µM

## COc1ncnc2c(-c3ccccc3)cn(COCc3ccccc3)c12
UO-31 renal
  GI50: 2.58 µM
  TGI: 12 µM
K-562 leukemia
  GI50: 3.32 µM
  TGI: > 100 µM
OVCAR-3 ovarian
  GI50: 5.09 µM
  TGI: 20.1 µM
OVCAR-5 ovarian
  GI50: 47.8 µM
  TGI: > 100 µM
HCT-15 colon
  GI50: 2.48 µM
  TGI: > 100 µM
SF-539 CNS
  GI50: 11.8 µM
  TGI: > 100 µM
EKVX NSCLC
  GI50: 2.37 µM
  TGI: > 100 µM
CAKI-1 renal
  GI50: 3.02 µM
  TGI: > 100 µM
HS 578T breast
  GI50: 7.8 µM
  TGI: > 100 µM
RPMI-8226 leukemia
  GI50: 2.03 µM
  TGI: 13 µM
NCI/ADR-RES ovarian
  GI50: 3.17 µM
  TGI: 19.1 µM
M14 melanoma
  GI50: 2.66 µM
  TGI: 7.07 µM
SF-295 CNS
  GI50: 2.82 µM
  TGI: 15.4 µM
MDA-MB-435
  GI50: 2 µM
  TGI: 6.13 µM
MCF7 breast
  GI50: 2.53 µM
  TGI: 9.32 µM
U251 CNS
  GI50: 4.06 µM
  TGI: > 100 µM
RXF 393 renal
  GI50: 2.5 µM
  TGI: 7.71 µM
OVCAR-4 ovarian
  GI50: 2.26 µM
  TGI: 9.5 µM
SK-MEL-28 melanoma
  GI50: 3.33 µM
  TGI: 48.9 µM
MALME-3M melanoma
  GI50: 2.52 µM
  TGI: 7.69 µM
A549 NSCLC
  GI50: 3.3 µM
  TGI: 28.7 µM
UACC-257 melanoma
  GI50: 2.74 µM
  TGI: 9.31 µM
786-0 renal
  GI50: 4.55 µM
  TGI: > 100 µM
T-47D breast
  GI50: 3.04 µM
  TGI: 9.84 µM
HT29 colon
  GI50: 3.49 µM
  TGI: > 100 µM
SNB-75 CNS
  GI50: 4.03 µM
  TGI: > 100 µM
UACC-62 melanoma
  GI50: 2.1 µM
  TGI: 8.81 µM
MOLT-4 leukemia
  GI50: 2.7 µM
  TGI: 7.12 µM
NCI-H460 lung
  GI50: 3.54 µM
  TGI: 23 µM
NCI-H226 lung
  GI50: 2.03 µM
  TGI: 8.12 µM
SR leukemia
  GI50: 2.79 µM
  TGI: 43.2 µM
SK-MEL-2 melanoma
  GI50: 2.08 µM
  TGI: 4.99 µM
HL-60(TB) leukemia
  GI50: 3.22 µM
  TGI: 18.1 µM
HCC-2998 colon
  GI50: 4.01 µM
  TGI: > 100 µM
ACHN renal
  GI50: 3.82 µM
  TGI: > 100 µM
NCI-H23 lung
  GI50: 3.02 µM
  TGI: > 100 µM
SK-OV-3 ovarian
  GI50: 7.69 µM
  TGI: > 100 µM
NCI-H522 lung
  GI50: 2.09 µM
  TGI: 6.17 µM
SW-620 colon
  GI50: 4.6 µM
  TGI: > 100 µM
BT-549 breast
  GI50: 2.57 µM
  TGI: 7.6 µM
CCRF-CEM leukemia
  GI50: 3.58 µM
  TGI: > 100 µM
SF-268 CNS
  GI50: 4.25 µM
  TGI: > 100 µM
TK-10 renal
  GI50: 4.05 µM
  TGI: > 100 µM
OVCAR-8 ovarian
  GI50: 3.02 µM
  TGI: 11.7 µM
LOX IMVI melanoma
  GI50: 3.27 µM
  TGI: 14.7 µM
IGROV1 ovarian
  GI50: 7.16 µM
  TGI: > 100 µM
PC-3 prostate
  GI50: 2.72 µM
  TGI: > 100 µM
DU-145 prostate
  GI50: 10.4 µM
  TGI: > 100 µM
KM12 colon
  GI50: 3.1 µM
  TGI: 19.9 µM
HCT-116 colon
  GI50: 2.67 µM
  TGI: 23 µM
HOP-62 NSCLC
  GI50: 5.78 µM
  TGI: 87.6 µM
MDA-MB-231 breast
  GI50: 4.04 µM
  TGI: > 100 µM
A498 renal
  GI50: 1.96 µM
  TGI: 10.1 µM
SN12C renal
  GI50: 3.12 µM
  TGI: 30 µM
SNB-19 CNS
  GI50: 6.53 µM
  TGI: > 100 µM
SK-MEL-5 melanoma
  GI50: 1.13 µM
  TGI: 2.34 µM
COLO 205 colon
  GI50: 2.69 µM
  TGI: 7.73 µM
